How the values were obtained:
Type in all cases: biochemical
Renilla luciferase [1] = biological target: T1, Renilla luciferase (Renilla reniformis, UniProt P27652); experiment: Spectral measurements in various buffers with Renilla luciferase (Example 10); set-up: Low / High / Width: unit not given here; details: for RenillaGlo (spectral peak, Table 4): RenillaGlo buffer; for High / Low / Peak / Width: emission spectrum
T1 sequence (P27652 1-311): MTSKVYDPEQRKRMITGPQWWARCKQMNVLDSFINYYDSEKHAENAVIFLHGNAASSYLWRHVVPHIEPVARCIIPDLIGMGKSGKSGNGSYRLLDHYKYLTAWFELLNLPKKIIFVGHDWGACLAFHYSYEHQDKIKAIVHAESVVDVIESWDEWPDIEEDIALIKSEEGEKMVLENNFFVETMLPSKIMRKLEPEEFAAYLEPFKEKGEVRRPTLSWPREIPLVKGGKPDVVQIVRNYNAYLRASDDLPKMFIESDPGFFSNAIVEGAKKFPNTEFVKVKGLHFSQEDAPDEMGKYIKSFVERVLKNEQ
Method: (§1) Each compound to be screened was diluted to a concentration of 100 uM (50 uM final concentration) in Renilla Glo Luciferase Assay buffer (Promega Corporation), NANO-GLO Luciferase Assay Buffer (Promega Corporation), or 20 uM (10 uM final) in OptiMEM+0.1% FBS. NANOLUC® luciferase and Renilla luciferase were serially diluted to 4, 40, and 400 ng/ml in OptiMEM+0.1% FBS. 50 ul of each compound dilution was mixed with 50 ul enzyme dilution and incubated for 1 minute at room temperature. Autoluminescence spectra of AS-353 was measured by adding 20 uM of substrate to OptiMEM+20% FBS and then 50 ul of this dilution was combined with 50 ul of OptiMEM+0.1% FBS. Spectral measurements were measured using a Tecan M-1000 luminometer. ([…]).

NANOLUC® Luciferase [2] = biological target: T2, NANOLUC® Luciferase (Oplophorus gracilirostris, UniProt Q9GV45, A31E/A60N/A81I/F95D/I117V/K70R/L54V/L99Q/M102K/N193R/P142E/Q151K/Q38R/Q45L/V71I/Y165I); experiment: Km and Vmax substrate titration with NanoLuc luciferase (Example 8); details: for light produced by NanoLuc luciferase compared to Renilla: FIGS. 1A-1D
T2 sequence (Q9GV45 28-196 with tags or gaps with the stated changes limits assumed): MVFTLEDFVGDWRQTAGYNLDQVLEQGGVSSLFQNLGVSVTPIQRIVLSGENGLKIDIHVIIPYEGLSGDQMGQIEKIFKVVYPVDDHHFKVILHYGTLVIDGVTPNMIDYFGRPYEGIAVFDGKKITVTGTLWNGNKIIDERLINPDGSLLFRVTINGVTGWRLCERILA
Method: (§2) Each compound to be screened was diluted to a concentration of 100 uM in Renilla Glo Luciferase Assay buffer (Promega Corporation) and then further diluted to 2×serial dilution in Renilla Glo Luciferase Assay Buffer. NANOLUC® luciferase and Renilla luciferase were diluted to a concentration of 4 ng/ml in OptiMEM+0.1% FBS. 50 ul of each compound dilution was then mixed with 50 ul of each enzyme dilution and incubated for 1 minute at room temperature. Light output for each compound was measured on a GLOMAX®-Multi+ luminometer. Km and Vmax were calculated for each enzyme/substrate combination using a GraphPad Prism Michaelis-Menten non-linear fit (FIGS. 1A-ID).

NANOLUC® Luciferase [3] = biological target: T2, NANOLUC® Luciferase; experiment: Spectral measurements in various buffers with NANOLUC luciferase (Example 10); details: for NanoGlo (spectral peak, Table 4) / OptiMEM (spectral peak, Table 4) / High / Low / Peak / Width: NanoLuc; for NanoGlo (spectral peak, Table 4): NanoGlo buffer; for High / Low / Peak / Width: emission spectrum; for shift of the NanoLuc luciferase spectral properties: FIGS. 3A-3C and 4A-4D
Method: as §1

Renilla luciferase [4] = biological target: T1, Renilla luciferase; experiment: Km and Vmax substrate titration with Renilla luciferase (Example 8)
Method: as §2

NANOLUC® Luciferase [5] = biological target: T2, NANOLUC® Luciferase; experiment: Luminescence assay with purified NANOLUC luciferase (Example 7); details: bioluminescence with NANOLUC luciferase
Method: Each compound to be screened was dissolved in DMSO (5 mM) and then further diluted to 100 uM in NANO-GLO® Luciferase Assay Buffer. Each diluted substrate was then combined in equal volumes with purified NANOLUC® Luciferase diluted into CO2 independent media+10% FBS. Initial light output for each substrate was measured in a GLOMAXI-Multi+luminometer three minutes after substrate addition and then at five minute intervals as a means to determine signal half-life.
The synthesized coelenterazine analogues (compounds of formula (I) and (II)) were evaluated for their suitability as luciferase substrates. NANOLUC® luciferase was employed for the screening because it is a small (19 kDa), stable, and particularly bright enzyme.

[6] = NanoLuc 4 ng/ml, Renilla Glo buffer, Michaelis-Menten fit
[7] = Renilla luciferase 4 ng/ml, Renilla Glo buffer, Michaelis-Menten fit

Row | Compound | NanoGlo (spectral peak, Table 4) (NANOLUC® Luciferase [3]) | OptiMEM (spectral peak, Table 4) (NANOLUC® Luciferase [3]) | High (NANOLUC® Luciferase [3]; NanoGlo Buffer) | Low (NANOLUC® Luciferase [3]; NanoGlo Buffer) | Peak (NANOLUC® Luciferase [3]; NanoGlo Buffer) | Width (NANOLUC® Luciferase [3]; NanoGlo Buffer) | High (NANOLUC® Luciferase [3]; OptiMEM + 0.1% FBS) | Low (NANOLUC® Luciferase [3]; OptiMEM + 0.1% FBS) | Peak (NANOLUC® Luciferase [3]; OptiMEM + 0.1% FBS) | Width (NANOLUC® Luciferase [3]; OptiMEM + 0.1% FBS) | λmax, nm (NANOLUC® Luciferase [5]) | further results
1 | Oc1ccc(-c2cn3c(O)c(Cc4ccccc4)nc3c(Cc3ccccc3)n2)cc1 [Coelenterazine-H] | 466 | 460 | 508 | 433 | 466 | 75 | 502 | 433 | 460 | 69 | – | OptiMEM (spectral peak, Table 4) (Renilla luciferase [1]; Renilla): 487; RenillaGlo (spectral peak, Table 4) (Renilla luciferase [1]; Renilla): 490; High (Renilla luciferase [1]; Renilla/RenillaGlo): 541; Low (Renilla luciferase [1]; Renilla/RenillaGlo): 454; Peak (Renilla luciferase [1]; Renilla/RenillaGlo): 490; Width (Renilla luciferase [1]; Renilla/RenillaGlo): 87; High (Renilla luciferase [1]; Renilla, OptiMEM + 0.1% FBS): 535; Low (Renilla luciferase [1]; Renilla, OptiMEM + 0.1% FBS): 451; Peak (Renilla luciferase [1]; Renilla, OptiMEM + 0.1% FBS): 487; Width (Renilla luciferase [1]; Renilla, OptiMEM + 0.1% FBS): 84; light produced by NanoLuc luciferase compared to Renilla (NANOLUC® Luciferase [2]): significantly more light than Renilla; Vmax (NANOLUC® Luciferase [2]; [6]): 19,790,000; Km (NANOLUC® Luciferase [2]; NanoLuc 4 ng/ml, Renilla Glo buffer, Michaelis-Menten fit, read-out: Km): 36.4 µM; more light with Renilla luciferase compared to Furimazine (Renilla luciferase [4]; FIGS. 1A-1D): ~7 ×; Km (Renilla luciferase [4]; [7]): 3.26 µM; Vmax (Renilla luciferase [4]; [7]): 64,494
2 | O=c1c(Cc2ccco2)nc2c(-c3ccccc3)[nH]c(-c3ccccc3)cn1-2 [AS-174, 2-(furan-2-ylmethyl)-6,8-diphenylimidazo[1,2-a]pyrazin-3(7H)-one] | 493 | 490 | 541 | 460 | 493 | 81 | 535 | 460 | 490 | 75 | 496 nm | shift of the NanoLuc luciferase spectral properties (NANOLUC® Luciferase [3]): shifted the NanoLuc® luciferase spectral properties to red
3 | O=c1c(Cc2ccco2)nc2c(Cc3ccccc3)[nH]c(-c3ccccc3)cn1-2 [Furimazine, 8-benzyl-2-(furan-2-ylmethyl)-6-phenylimidazo[1,2-a]pyrazin-3(7H)-one] | 463 | 463 | 520 | 433 | 463 | 87 | 499 | 430 | 463 | 69 | 460 nm | OptiMEM (spectral peak, Table 4) (Renilla luciferase [1]; Renilla): 430; RenillaGlo (spectral peak, Table 4) (Renilla luciferase [1]; Renilla): 436; High (Renilla luciferase [1]; Renilla/RenillaGlo): 490; Low (Renilla luciferase [1]; Renilla/RenillaGlo): 403; Peak (Renilla luciferase [1]; Renilla/RenillaGlo): 436; Width (Renilla luciferase [1]; Renilla/RenillaGlo): 87; High (Renilla luciferase [1]; Renilla, OptiMEM + 0.1% FBS): 472; Low (Renilla luciferase [1]; Renilla, OptiMEM + 0.1% FBS): 403; Peak (Renilla luciferase [1]; Renilla, OptiMEM + 0.1% FBS): 430; Width (Renilla luciferase [1]; Renilla, OptiMEM + 0.1% FBS): 69; light produced by NanoLuc luciferase compared to Renilla (NANOLUC® Luciferase [2]): significantly more light than Renilla; Vmax (NANOLUC® Luciferase [2]; [6]): 33,470,000; Vmax (Renilla luciferase [4]; [7]): 8,910
4 | Cn1cc(-c2[nH]c(-c3ccccc3)cn3c(=O)c(Cc4ccco4)nc2-3)ccc1=O [AS-256, 2-(furan-2-ylmethyl)-8-(1-methyl-6-oxo-1,6-dihydropyridin-3-yl)-6-phenylimidazo[1,2-a]pyrazin-3(7H)-one] | – | – | – | – | – | – | – | – | – | – | 496 nm | –
5 | O=c1c(Cc2ccco2)nc2c(-c3cccc4ccccc34)[nH]c(-c3ccccc3)cn1-2 [AS-215, 2-(furan-2-ylmethyl)-8-(naphthalen-1-yl)-6-phenylimidazo[1,2-a]pyrazin-3(7H)-one] | – | – | – | – | – | – | – | – | – | – | 517 nm | –
6 | N#Cc1ccc(-c2[nH]c(-c3ccccc3)cn3c(=O)c(Cc4ccco4)nc2-3)s1 [AS-262, 5-(2-(furan-2-ylmethyl)-3-oxo-6-phenyl-3,7-dihydroimidazo[1,2-a]pyrazin-8-yl)thiophene-2-carbonitrile] | 577 | 574 | 634 | 535 | 577 | 99 | 625 | 532 | 574 | 93 | 574 nm | shift of the NanoLuc luciferase spectral properties (NANOLUC® Luciferase [3]): shifted the NanoLuc® luciferase spectral properties to red
7 | O=c1c(Cc2ccco2)nc2c(-c3ccc4scnc4c3)[nH]c(-c3ccccc3)cn1-2 [AS-250, 8-(benzo[d]thiazol-5-yl)-2-(furan-2-ylmethyl)-6-phenylimidazo[1,2-a]pyrazin-3(7H)-one] | – | – | – | – | – | – | – | – | – | – | 511 nm | –
8 | N#Cc1cccc(-c2[nH]c(-c3ccccc3)cn3c(=O)c(Cc4ccco4)nc2-3)c1 [AS-274, 3-(2-(furan-2-ylmethyl)-3-oxo-6-phenyl-3,7-dihydroimidazo[1,2-a]pyrazin-8-yl)benzonitrile] | – | – | – | – | – | – | – | – | – | – | 514 nm | –
9 | O=c1c(Cc2ccco2)nc2c(-c3ccnc4ccccc34)[nH]c(-c3ccccc3)cn1-2 [AS-310, 2-(furan-2-ylmethyl)-6-phenyl-8-(quinolin-4-yl)imidazo[1,2-a]pyrazin-3(7H)-one] | 574 | 571 | 631 | 526 | 574 | 105 | 631 | 520 | 571 | 111 | 571 nm | shift of the NanoLuc luciferase spectral properties (NANOLUC® Luciferase [3]): shifted the NanoLuc® luciferase spectral properties to red
10 | O=c1c(Cc2ccco2)nc2c(-c3cccnc3)[nH]c(-c3ccccc3)cn1-2 [AS-277, 2-(furan-2-ylmethyl)-6-phenyl-8-(pyridin-3-yl)imidazo[1,2-a]pyrazin-3(7H)-one] | – | – | – | – | – | – | – | – | – | – | 517 nm | –
11 | CN(C)c1ccc(-c2[nH]c(-c3ccccc3)cn3c(=O)c(Cc4ccco4)nc2-3)cc1 [AS-224, 8-(4-(dimethylamino)phenyl)-2-(furan-2-ylmethyl)-6-phenylimidazo[1,2-a]pyrazin-3(7H)-one] | – | – | – | – | – | – | – | – | – | – | 502 nm | –
12 | Nc1ccc(-c2cn3c(=O)c(Cc4ccco4)nc-3c(Cc3ccccc3)[nH]2)cc1 [JRW-0445, 6-(4-aminophenyl)-8-benzyl-2-(furan-2-ylmethyl)imidazo[1,2-a]pyrazin-3(7H)-one] | – | – | – | – | – | – | – | – | – | – | 502 nm | –
13 | N#Cc1ccc(-c2[nH]c3c(n4c(=O)c(Cc5ccco5)nc2-4)CCc2ccccc2-3)s1 [AS-340, 5-(2-(furan-2-ylmethyl)-3-oxo-3,5,6,11-tetrahydrobenzo[f]imidazo[1,2-a]quinoxalin-12-yl)thiophene-2-carbonitrile] | – | – | – | – | – | – | – | – | – | – | 574 nm | –
14 | Nc1ccccc1-c1cn2c(=O)c(Cc3ccco3)nc-2c(Cc2ccccc2)[nH]1 [JRW-0446, 6-(2-aminophenyl)-8-benzyl-2-(furan-2-ylmethyl)imidazo[1,2-a]pyrazin-3(7H)-one] | – | – | – | – | – | – | – | – | – | – | 487 nm | –

Reference: patent US10000500B2 (PROMEGA CORPORATION, priority 2016, dated 2018)
